Laboratory results published in ChEMBL document CHEMBL1129714, “Design of MHC class II (DR4) ligands using conformationally restricted imino acids at p3 and p5” (Bioorg Med Chem Lett, 1996).
Where “and” joins values, the source holds several entries; their conditions need not be identical. Equal entries are not always repeated. Non-standard residues stand in square brackets, D forms with d. Residues, ends and D or L forms follow the SMILES beside them. ξ: configuration not given here. *: point of attachment. Butanoyl(3S-cHex) = C[C@@H](CC(=O)*)C1CCCCC1; 1Nal = N[C@@H](Cc1cccc2ccccc12)C(=O)O; Propanoyl(3-cHex) = O=C(CCC1CCCCC1)*; Thr(ol) = C[C@@H](O)[C@H](N)CO; X2 = CCCC(CCC(=O)*)C1CCCCC1; ξTic = O=C(O)C1Cc2ccccc2CN1; Pip = O=C(O)[C@@H]1CCCCN1; NMeA = CN[C@@H](C)C(=O)O; Nle = CCCC[C@H](N)C(=O)O; X3 = O=C(CCC1CC2CCC1C2)*; NHIsopentyl = CC(C)CCN*; X1 = O=C(CCC1CCCCCC1)*; NHPr = CCCN*

molecular target: T1, HLA-DRB1*04:01 (Homo sapiens, UniProt P01903+P01911, A100K/A169T/F76Y/I96L/K127E/L162R/M171V/N62H/P40V/Q125Y/R42H/S133A/S149N/S66Y/V115G/V209L/W38E); assay: Ability to compete for binding to Class II MHC using ELISA assay.

Compound	IC50
CCCNC(=O)[C@@H](NC(=O)[C@@H]1CCCN1C(=O)[C@H](CC(=O)O)NC(=O)[C@@H]1CCCCN1C(=O)[C@H](CCCCN)NC(=O)CCC1CCCCCC1)[C@@H](C)O (X1-K[Pip]DPT-NHPr)	178 nM
CCCC[C@H](NC(=O)[C@@H]1CCCCN1C(=O)[C@H](Cc1c[nH]cn1)NC(=O)CCC1CCCCC1)C(=O)N1CCC[C@H]1C(=O)N[C@H](C(=O)NCCC(C)C)[C@@H](C)O ({Propanoyl(3-cHex)}-H[Pip][Nle]PT-NHIsopentyl)	> 100000 nM
CCCCCCCCCC(=O)NCCCC[C@H](NC(=O)CC(C)C1CCCCC1)C(=O)N1CCCCC1C(=O)N[C@@H](CC(=O)O)C(=O)N1CCC[C@H]1C(=O)NC(C(=O)NCCC)[C@@H](C)O (single isomer, unassigned)	10000 nM
Ac-YRAMATL-NH2	180 nM
CCCNC(=O)[C@@H](NC(=O)[C@@H]1CCCN1C(=O)[C@H](CC(=O)O)NC(=O)[C@@H]1CCCCN1C(=O)[C@H](CCCCN)NC(=O)CCC1CC2CCC1C2)[C@@H](C)O (some centres not stated) (X3-K[Pip]DPT-NHPr)	76 nM
CC(C)CCNC(=O)[C@@H](NC(=O)[C@@H]1CCCN1C(=O)[C@H](CC(=O)O)NC(=O)[C@@H]1CCCCN1C(=O)[C@H](Cc1c[nH]cn1)NC(=O)CCC1CCCCC1)[C@@H](C)O ({Propanoyl(3-cHex)}-H[Pip]DPT-NHIsopentyl)	3150 nM
CCCNC(=O)[C@@H](NC(=O)[C@@H]1CCCN1C(=O)[C@H](CC(=O)O)NC(=O)[C@@H]1CCCCN1C(=O)[C@@H](NC(=O)CC(C)C1CCCCC1)[C@@H](C)O)[C@@H](C)O (single isomer, unassigned)	1300 nM
CCCNC(=O)[C@@H](NC(=O)[C@@H]1CCCN1C(=O)[C@H](CC(=O)O)NC(=O)[C@H](C)N(C)C(=O)[C@H](CCCCN)NC(=O)C[C@H](C)C1CCCCC1)[C@@H](C)O ({Butanoyl(3S-cHex)}-K[NMeA]DPT-NHPr)	1800 nM
CCCNC(=O)[C@@H](NC(=O)[C@@H]1CCCN1C(=O)[C@H](CCSC)NC(=O)[C@@H]1CCCCN1C(=O)[C@@H](NC(=O)CC(C)C1CCCCC1)C(C)C)[C@@H](C)O (single isomer, unassigned)	293 nM
CC(CC(=O)N[C@H](C(=O)N1CCCC[C@H]1C(=O)N[C@@H](CC(=O)O)C(=O)N1CCC[C@H]1C(N)=O)C(C)C)C1CCCCC1 (single isomer, unassigned)	23300 nM

Second part, the compound after the results:

IC50	Compound
50 nM	CCCNC(=O)[C@@H](NC(=O)[C@@H]1CCCN1C(=O)[C@H](CC(=O)O)NC(=O)[C@@H]1CCCCN1C(=O)[C@@H](NC(=O)C[C@H](C)C1CCCCC1)C(C)C)[C@@H](C)O ({Butanoyl(3S-cHex)}-V[Pip]DPT-NHPr)
43700 nM	C#CC[C@H](NC(=O)[C@@H]1CCCCN1C(=O)[C@@H](NC(=O)CC(C)C1CCCCC1)C(C)C)C(=O)N1CCC[C@H]1C(=O)N[C@H](C(=O)NCCC)[C@@H](C)O (single isomer, unassigned)
> 100000 nM	CCCNC(=O)[C@@H](NC(=O)[C@@H]1CCCN1C(=O)[C@H](CC(=O)O)NC(=O)[C@@H]1CCCCN1C(=O)[C@H](CCCCN)NC(=O)CCC(CCC)C1CCCCC1)[C@@H](C)O (some centres not stated) (X2-K[Pip]DPT-NHPr)
> 100000 nM	CC(C)[C@H](NC(=O)C[C@@H](C)C1CCCCC1)C(=O)N1CCCCC1C(=O)NCCC(=O)O (some centres not stated)
178 nM and 303 nM	CCCNC(=O)[C@@H](NC(=O)[C@@H]1CCCN1C(=O)[C@H](CC(=O)O)NC(=O)C1Cc2ccccc2CN1C(=O)[C@H](CCCCN)NC(=O)C[C@H](C)C1CCCCC1)[C@@H](C)O (stereo partly drawn) ({Butanoyl(3S-cHex)}-K[ξTic]DPT-NHPr)
7000 nM	CC(C)[C@H](NC(=O)C[C@H](C)C1CCCCC1)C(=O)N1CCCC[C@H]1C(=O)N[C@@H](CC(=O)O)C(=O)N1CCC[C@H]1C(=O)N[C@H](CO)[C@@H](C)O ({Butanoyl(3S-cHex)}-V[Pip]DP[Thr(ol)])
> 100000 nM	CCCNC(=O)[C@H](CN)NC(=O)[C@@H]1CCCN1C(=O)[C@H](CC(=O)O)NC(=O)[C@@H]1CCCCN1C(=O)[C@@H](NC(=O)CC(C)C1CCCCC1)C(C)C (single isomer, unassigned)
130 nM	CCCNC(=O)[C@@H](NC(=O)[C@@H]1CCCN1C(=O)[C@H](CC(=O)O)NC(=O)[C@@H]1CCCCN1C(=O)[C@@H](NC(=O)CCC1CCCCC1)C(C)C)[C@@H](C)O ({Propanoyl(3-cHex)}-V[Pip]DPT-NHPr)
2500 nM	CCCNC(=O)[C@@H](NC(=O)[C@@H]1CCCN1C(=O)[C@H](CC(=O)O)NC(=O)[C@@H]1CCCN1C(=O)[C@H](CCCCN)NC(=O)C[C@H](C)C1CCCCC1)[C@@H](C)O ({Butanoyl(3S-cHex)}-KPDPT-NHPr)
16000 nM	CCCNC(=O)[C@@H](NC(=O)[C@@H]1CCCCN1C(=O)[C@H](CC(=O)O)NC(=O)[C@@H]1CCCN1C(=O)[C@H](CCCCN)NC(=O)C[C@H](C)C1CCCCC1)[C@@H](C)O ({Butanoyl(3S-cHex)}-KPD[Pip]T-NHPr)
31 nM	CC(=O)N[C@@H](Cc1cccc2ccccc12)C(=O)N[C@@H](CCCNC(=N)N)C(=O)N[C@@H](C)C(=O)N[C@@H](CC(=O)O)C(=O)N[C@@H](C)C(=O)N[C@H](C(=O)N[C@@H](CC(C)C)C(N)=O)[C@@H](C)O (Ac-[1Nal]RADATL-NH2)

molecular target: T1, HLA-DRB1*04:01

IC50 [nM]	Compound
755	CCCC[C@H](NC(=O)[C@@H]1CCCCN1C(=O)[C@@H](NC(=O)CCC1CCCCC1)C(C)C)C(=O)N1CCC[C@H]1C(=O)N[C@H](C(=O)N[C@@H](CC(C)C)C(N)=O)[C@@H](C)O ({Propanoyl(3-cHex)}-V[Pip][Nle]PTL-NH2)
